From US8822754B2, “Ecdysone receptor-based inducible gene expression system” (Intrexon Corporation, priority 2000, dated 2014) come the findings set out here.

One data set relates to CfEcR/RXR-based switch. The data set is described as follows: Luciferase reporter assay of truncated CfEcR and MmRXR receptor pairs in NIH3T3 cells (Example 2). Type of data set: cell-based, Choristoneura fumiferana. Particulars: NIH3T3 cells, 0, 1, 5 or 25 uM ligand, 48 hr; FIGS. 11-14. The protocol: Briefly, polynucleotides encoding EcR or RXR receptors were truncated at the junctions of A/B, C, D, E and F domains and fused to either a GAL4 DNA binding domain encoding polynucleotide (SEQ ID NO: 41) for CfEcR, or a VP16 activation domain encoding polynucleotide (SEQ ID NO: 45) for MmRXR as described in Example 1. The resulting receptor truncation/fusion polypeptides were assayed in NIH3T3 cells. Plasmid pFRLUC (Stratagene) encoding a luciferase polypeptide was used as a reporter gene construct and pTKRL (Promega) encoding a Renilla luciferase polypeptide under the control of the constitutive TK promoter was used to normalize the transfections as described above. The analysis was performed in triplicates and mean luciferase counts were determined as described above.
Gene expression cassettes comprising polynucleotides encoding either full length or truncated CfEcR polypeptides fused to a GALA. […] The cells were harvested, lysed and luciferase reporter activity was measured in the cell lysates. […]
In general terms: A reporter such as luciferase makes a cellular process visible.

The next data set relates to GAL4EcR + VP16RXR. The data set is described as follows: Transactivation of reporter genes through switch 1.1 in 3T3 cells. To be noted: GAL4CfEcRDEF/VP16MmRXRDEF (switch 1.1), 1.0 μM ligand, 48 hr. The source says:
(§1) In various cellular backgrounds, including mammalian cells, insect ecdysone receptor (EcR) heterodimerizes with retinoid X receptor (RXR) and, upon binding of ligand, transactivates genes under the control of ecdysone response elements. Applicants constructed several EcR-based gene expression cassettes based on the spruce budworm Choristoneura fumiferana EcR (“CfEcR”; full length polynucleotide and amino acid sequences are set forth in SEQ ID NO: 49 and SEQ ID NO: 50, respectively), C. fumiferana ultraspiracle (“CfUSP”; full length polynucleotide and amino acid sequences are set forth in SEQ ID NO: 51 and SEQ ID NO: 52, respectively), and mouse Mus musculus RXRα (MmRXRα; full length polynucleotide and amino acid sequences are set forth in SEQ ID NO: 53 and SEQ ID NO: 54, respectively). The prepared receptor constructs comprise a ligand binding domain of EcR and of RXR or of USP; a DNA binding domain of GAL4 or of EcR; and an activation domain of VP16. The reporter constructs include a reporter gene, luciferase or LacZ, operably linked to a synthetic promoter construct that comprises either GAL4 or EcR/USP binding sites (response elements). Various combinations of these receptor and reporter constructs were cotransfected into CHO, NIH3T3, CV1 and 293 cells. […] Reporter gene expression activities were assayed at 24 hr or 48 hr after ligand addition.
(§2) The same procedures described for CHO cells were followed for 3T3 cells as well with two modifications. The cells were plated when they reached 50% confluency. 125,000 or 50,000 or 25,000 cells were plated per well of 6- or 12- or 24-well plates respectively. The GAl4EcR/VP16RXR and reporter vector DNAs were transfected into NIH3T3 cells, the transfected cells were grown in medium containing PonA, MurA, N-(2-ethyl-3-methoxybenzoyl)-N′-(3,5-dimethylbenzoyl)-N′-t-butylhydrazine, or N-(3,4-(1,2-ethylenedioxy)-2-methylbenzoyl)-N′-(3,5-dimethylbenzoyl)-N′-tert-butylhydrazine for 48 hr. The ligand treatments were performed as described in the CHO cell section above.
(§3) Cells were harvested 24-48 hr after adding ligands. 125, 250, or 500 μl of passive lysis buffer (part of Dual-luciferase™ reporter assay system from Promega Corporation) were added to each well of 24- or 12- or […] respectively. The plates were placed on a rotary shaker for 15 min. Twenty μl of lysate was assayed. Luciferase activity was measured using Dual-luciferase™ reporter assay system from Promega Corporation following the manufacturer's instructions. β-Galactosidase was measured using Galacto-Star™ assay kit from TROPIX following the manufacturer's instructions. All luciferase and β-galactosidase activities were normalized using Renilla luciferase as a standard. Fold activities were calculated by dividing normalized relative light units (“RLU”) in ligand treated cells with normalized RLU in DMSO treated cells (untreated control).

In another data set the test system is GAL4RXR + VP16CfEcR. Nature of the data set: Transactivation of reporter genes through switch 1.3 in 3T3 cells. Particulars: GAL4MmRXRDEF/VP16CfEcRCDEF (switch 1.3), 1.0 μM ligand.
Excerpt: as §1
MmRXRDEF (SEQ ID NO: 22) was fused to a GAL4DNABD (SEQ ID NO: 41) and CfEcRCDEF (SEQ ID NO: 1) was fused to a VP16AD (SEQ ED NO: 45).
as §2, §3

The test system of a further data set is CfEcR. The data set is described as follows: Comparison of switches in the mammalian cell lines tested (Tables 1-4). Type of data set: cell-based, Choristoneura fumiferana. Particulars: see Tables 1-4. As for the experimental part: Several commercially available lipofactors as well as electroporation methods were evaluated and the best conditions for transfection of each cell line were developed. CHO, NIH3T3, 293 and CV1 cells were grown to 60% confluency. DNAs corresponding, to the various switch constructs outlined in Examples 1.1 through 1.10 were transfected into CHO cells, NIH3T3 cells, 293 cells, or CV1 cells as follows.
Cells were harvested 24-48 hr after adding ligands. […] Twenty μl of lysate was assayed.

For `CC(C)CC[C@@H](O)[C@](C)(O)[C@H]1CC[C@@]2(O)C3=CC(=O)[C@@H]4C[C@@H](O)[C@@H](O)C[C@]4(C)[C@H]3CC[C@]12C` [Ponasterone A, reference compound], the “sensitivity of the EcR/RXR switch to the ligand” value in the data set with CfEcR/RXR-based switch is given as “insensitive”. Further, the “Mean Fold Induction at 1.0 μM Concentration” value (“Mean Fold Induction” for short) with GAL4EcR + VP16RXR and with GAL4RXR + VP16CfEcR was 1.0 fold in each case.

On to `Cc1cc(C)cc(C(=O)N(NC(=O)c2ccc3c(c2C)OCCO3)C(C)(C)C)c1` [N-(3,4-(1,2-ethylenedioxy)-2-methylbenzoyl)-N′-(3,5-dimethylbenzoyl)-N′-tert-butylhydrazine], for which the figures for the “Mean Fold Induction” value in the data set on GAL4EcR + VP16RXR and in the data set with GAL4RXR + VP16CfEcR were 601 fold and 54 fold, respectively. Moreover, the “potency as activators of CfEcR as compared to DmEcR” value with CfEcR was “more potent activators of CfEcR”.

Regarding `CC(C)CC[C@@H](O)[C@](C)(O)[C@H]1CC[C@@]2(O)C3=CC(=O)[C@]4(O)C[C@@H](O)[C@@H](O)C[C@]4(C)[C@H]3[C@H](O)C[C@]12C` [Muristerone A, reference compound], the “Mean Fold Induction” value in the data set with GAL4EcR + VP16RXR and in the data set on GAL4RXR + VP16CfEcR was 1.0 fold in each case.
